The structures appear in SMILES notation. Read-outs that look alike come from different tables or passages of the source.

One experiment deals with T1, human 11β-HSD1 (Homo sapiens, UniProt P28845).
T1 construct: The obtained PCR products of about 0.9 kbp, 1.2 kbp, and 0.9 kbp were subcloned into an expression vector pcDNA3.1+/Zeo; expressed in transfected cells
Briefly: Enzyme inhibitory activity, human 11β-HSD1 (lysate of stably expressing HEK293 cells, cortisol by competitive ELISA). Format: biochemical. To be noted: human 11β-HSD1, cell lysate, 37° C. for 1 hour, read-out: h HSD1 in vitro assay (IC50 uM). As to the method: (§1) 1. Human 11β-HSD1-, Human 11β-HSD2- and Mouse 11β-HSD1-Gene Clonings and Establishment of Stably Expressing Cells
(§2) Human 11β-HSD1-, human 11β-HSD2-, and mouse 11β-HSD1-gene clonings were conducted using as a template a reverse transcription product of human-liver RNA, human-kidney RNA (CELL APPLICATIONS), and mouse-kidney RNA respectively, by means of PCR cloning with reference to nucleotide sequences of Genbank Accession Nos. NM_005525, NM_000196, and NM_008288. The obtained PCR products of about 0.9 kbp, 1.2 kbp, and 0.9 kbp were subcloned into an expression vector pcDNA3.1+/Zeo (Invitrogen).
(§3) Human 11β-HSD1- and human 11β-HSD2-expressing vectors were transfected into human kidney-derived cell line, HEK293 cells, using a transfection reagent, jet PEI (Funakoshi). Mouse 11β-HSD1 was transfected to Chinese hamster ovary-derived cell line, CHO-K1 cells. Selection was conducted with 200-400 μg/mL of zeocine (Invitrogen) to provide stably expressing-cell clones. The stably expressing cells were suspended in buffer solution A (20 mmol/L Tris-HCl, pH 7.4, 250 mmol/L sucrose, 1 mmol/L EGTA, 1 mmol/L EDTA, 1 mmol/L MgCl2), sonicated, and then stored at −80° C.
(§4) 2. Assay of Enzyme Inhibitory Activity
(§5) An enzymatic reaction was conducted using a polystyrene 96-well plate. Each well was added with 1 μL of a test agent dissolved in DMSO and then diluted (0.003 to 3 mmol/L), and further added with 10 μL of cell lysate diluted to a concentration of 0.1 mg/mL to 0.4 mg/mL. Next, 90 μL of buffer solution A containing substrate (100 nmol/L cortisone or cortisol) and coenzyme (400 μmol/L NADPH or NAD+) was added and the mixture was incubated at 37° C. for 1 hour. The enzymatic reaction was stopped by treating at 95° C. for 3 minutes. Cortisol that was present in the reaction solution was determined by a competitive ELISA shown below.
(§6) Anti-rabbit IgG antibody (Chemi-con) diluted to 2 μg/mL with carbonate buffer solution (pH 9.6) was added in 100 μL each to a 96-well immuno plate (Nunc) and immobilized by an incubation at 4° C. overnight. 50 μL of enzymatic reaction solution was put onto the plates, and further, anti-cortisol antibody (Cosmo Bio) and HRP-labeled cortisol (Cosmo Bio), diluted with buffer solution B (25 mmol/L Tris-HCl pH 7.4, 137 mmol/L NaCl, 2.68 mmol/L KCl), were added in 50 μL respectively and incubated at 4° C. overnight. After washed three times with buffer solution B containing 0.05% Tween 20, the plates were allowed to develop color by adding 100 μL of color reagent, TMB (Moss). The color reaction was stopped by 25 μL of 1 mol/L sulfuric acid and the absorbance was determined at 450 nm with a microplate reader (Molecular Device, VersaMax).
(§7) The values of human 11β-HSD1, human 11β-HSD2, and mouse 11β-HSD1 activities were subtracted from 100, and the resultant values were regarded as the respective 11β-HSD inhibition rates of example compounds. […] The comparison of human 11β-HSD1 and human 11β-HSD2 inhibiting activities is shown in Table 1, and the comparison of human 11β-HSD1 and mouse 11β-HSD1 inhibiting activities is shown in Table 2.

For the next experiment, the target named is T2, mouse 11β-HSD1 (Mus musculus, UniProt P50172).
T2 construct: The obtained PCR products of about 0.9 kbp, 1.2 kbp, and 0.9 kbp were subcloned into an expression vector pcDNA3.1+/Zeo; expressed in transfected cells
T2 sequence (P50172 whole entry): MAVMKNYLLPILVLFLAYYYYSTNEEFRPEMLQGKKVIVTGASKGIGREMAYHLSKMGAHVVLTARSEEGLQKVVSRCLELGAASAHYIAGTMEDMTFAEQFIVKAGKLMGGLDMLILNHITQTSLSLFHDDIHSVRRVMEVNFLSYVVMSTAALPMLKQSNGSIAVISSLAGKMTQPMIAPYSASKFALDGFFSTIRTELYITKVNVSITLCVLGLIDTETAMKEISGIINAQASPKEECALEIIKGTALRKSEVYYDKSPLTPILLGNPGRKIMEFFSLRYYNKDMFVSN
Put plainly: Enzyme inhibitory activity, mouse 11β-HSD1 (lysate of stably expressing CHO-K1 cells, cortisol by competitive ELISA). Format: biochemical. To be noted: Table 2; mouse 11β-HSD1, cell lysate, 37° C. for 1 hour; read-out: m HSD1 in vitro assay (IC50 uM). Here is the method:
as §1, §2, §3, §4, §5, §6, §7
(An ELISA detects its analyte on a solid surface through an enzyme-linked reagent.)

T1 sequence (P28845 whole entry): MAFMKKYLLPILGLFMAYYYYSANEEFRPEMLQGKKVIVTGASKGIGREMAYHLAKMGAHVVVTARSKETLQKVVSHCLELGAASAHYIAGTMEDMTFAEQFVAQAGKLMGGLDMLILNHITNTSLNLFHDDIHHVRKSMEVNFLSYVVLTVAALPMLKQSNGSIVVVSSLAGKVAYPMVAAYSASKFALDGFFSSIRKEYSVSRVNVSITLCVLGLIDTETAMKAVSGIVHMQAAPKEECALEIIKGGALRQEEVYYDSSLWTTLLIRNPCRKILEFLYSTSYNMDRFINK

Turning to `CC1(C)C(=O)N(C2C3CC4CC(C3)CC2C4)N1Cc1cccc2ccccc12` (stereo not shown) [Example 63, 4,4-dimethyl-1-(naphthalen-1-ylmethyl)-2-(adamantan-2-yl)-1,2-diazetidin-3-one], the IC50 (usually the concentration that gives 50% inhibition) on human 11β-HSD1 (Table 2) stood at 0.015 µM; on mouse 11β-HSD1 it was 0.41 µM.
The like results for `CC1(C)C(=O)N(C2C3CC4CC(C3)CC2C4)N1Cc1ccc2ccccc2c1` (stereo not shown) [Example 64, 4,4-dimethyl-1-(naphthalen-2-ylmethyl)-2-(adamantan-2-yl)-1,2-diazetidin-3-one] were, in that order, 0.6 µM and 0.041 µM.
On the same counts, the results for `CC1(C)C(=O)N([C@H]2C3CC4CC2C[C@](O)(C4)C3)N1Cc1ccccc1Cl` [Example 65, trans-1-(2-chlorobenzyl)-2-(5-hydroxyadamantan-2-yl)-4,4-dimethyl-1,2-diazetidin-3-one] are 0.5 µM and 0.47 µM.
With `CC1(C)C(=O)N([C@H]2C3CC4CC2C[C@](O)(C4)C3)N1Cc1ccccc1C(F)(F)F` [Example 66, trans-2-(5-hydroxyadamantan-2-yl)-4,4-dimethyl-1-[2-(trifluoromethyl)benzyl]-1,2-diazetidin-3-one], the IC50 stood at 0.09 µM at human 11β-HSD1 (Table 1) and 0.57 µM at mouse 11β-HSD1.
Regarding `CC1(C)C(=O)N([C@H]2C3CC4CC2C[C@](O)(C4)C3)N1Cc1cc(F)ccc1Cl` [Example 67, trans-1-(2-chloro-5-fluorobenzyl)-2-(5-hydroxyadamantan-2-yl)-4,4-dimethyl-1,2-diazetidin-3-one], the values for the IC50 on human 11β-HSD1 (Table 2) and at mouse 11β-HSD1 were 0.12 µM and 0.29 µM, respectively.
The like results for `CC1(C)C(=O)N(C2CCCCCCC2)N1Cc1ccccc1Cl` [Example 73, 1-(2-chlorobenzyl)-2-cyclooctyl-4,4-dimethyl-1,2-diazetidin-3-one] were, in that order, 0.021 µM and 0.11 µM.
The like results for `CC1(C)C(=O)N(C2CCCCCCC2)N1Cc1cc(Cl)ccc1Cl` [Example 75, 2-cyclooctyl-1-(2,5-dichlorobenzyl)-4,4-dimethyl-1,2-diazetidin-3-one] were, in that order, 0.038 µM and 0.15 µM.
`CC1(C)C(=O)N(C2CC3CCC2C3)N1Cc1ccccc1Cl` (stereo not shown) [Example 78, 2-(bicyclo[2.2.1]heptan-2-yl)-1-(2-chlorobenzyl)-4,4-dimethyl-1,2-diazetidin-3-one]: the values for the IC50 at human 11β-HSD1 (Table 2) and at mouse 11β-HSD1 were 0.15 µM and 0.64 µM, respectively.
Regarding `CC1(C)C(=O)N(C2CC3CCC2C3)N1Cc1cccc(Cl)c1Cl` (stereo not shown) [Example 79, 2-(bicyclo[2.2.1]heptan-2-yl)-1-(2,3-dichlorobenzyl)-4,4-dimethyl-1,2-diazetidin-3-one], the IC50 turned out to be 0.22 µM on human 11β-HSD1 (Table 2) and 0.36 µM on mouse 11β-HSD1.
The like results for `CC1(C)C(=O)N(C2CC3CCC2C3)N1Cc1cc(Cl)ccc1Cl` (stereo not shown) [Example 80, 2-(bicyclo[2.2.1]heptan-2-yl)-1-(2,5-dichlorobenzyl)-4,4-dimethyl-1,2-diazetidin-3-one] were, in that order, 0.13 µM and 0.39 µM.
The like results for `CC1(C)C(=O)N(C2CCCCCC2)N1Cc1ccccc1Cl` [Example 83, 1-(2-chlorobenzyl)-2-cycloheptyl-4,4-dimethyl-1,2-diazetidin-3-one] were, in that order, 0.092 µM and 0.66 µM.
The like results for `CC1(C)C(=O)N(C2CCCCCC2)N1Cc1cccc(Cl)c1Cl` [Example 84, 2-cycloheptyl-1-(2,3-dichlorobenzyl)-4,4-dimethyl-1,2-diazetidin-3-one] were, in that order, 0.13 µM and 0.61 µM.
Regarding `CC1(C)C(=O)N(C2CCCCCC2)N1Cc1cc(Cl)ccc1Cl` [Example 85, 2-cycloheptyl-1-(2,5-dichlorobenzyl)-4,4-dimethyl-1,2-diazetidin-3-one], the IC50 on human 11β-HSD1 (Table 2) stood at 0.053 µM; at mouse 11β-HSD1, 0.37 µM.
On the same counts, the results for `CC1(C)C(=O)N(C2CCCCCC2)N1Cc1ccc(F)cc1Cl` [Example 86, 1-(2-chloro-4-fluorobenzyl)-2-cycloheptyl-4,4-dimethyl-1,2-diazetidin-3-one] are 0.14 µM and 0.49 µM.
On the same counts, the results for `CC1(C)C(=O)N(C2CCCCCC2)N1Cc1cc(F)ccc1Cl` [Example 87, 1-(2-chloro-5-fluorobenzyl)-2-cycloheptyl-4,4-dimethyl-1,2-diazetidin-3-one] are 0.1 µM and 0.85 µM.
As for `CC1(C)C(=O)N(C2C3CC4CC2CC(C(N)=O)(C4)C3)N1Cc1ccccc1Cl` (stereo not shown) [Example 95, 4-[2-(2-chlorobenzyl)-3,3-dimethyl-4-oxo-1,2-diazetidin-1-yl]adamantane-1-carboxamide], the half-inhibitory concentration (IC50) on human 11β-HSD1 (Table 2) is 0.13 µM; on mouse 11β-HSD1, 0.35 µM.
As for `CC1(C)C(=O)N(C2C3CC4CC(C3)CC2C4)N1C(=O)c1ccccc1` (stereo not shown) [Example 96, 4,4-dimethyl-1-(phenylcarbonyl)-2-(adamantan-2-yl)-1,2-diazetidin-3-one], the results for the IC50 on human 11β-HSD1 (Table 2) and at mouse 11β-HSD1 were 0.8 µM and 0.22 µM, respectively.
The like results for `CC1(C)C(=O)N(C2C3CC4CC(C3)CC2C4)N1C(=O)c1ccc(Br)cc1` (stereo not shown) [Example 106, 1-[(4-bromophenyl)carbonyl]-4,4-dimethyl-2-(adamantan-2-yl)-1,2-diazetidin-3-one] were, in that order, 0.75 µM and 0.17 µM.
On the same counts, the results for `Cc1cccc(C(=O)N2N(C3C4CC5CC(C4)CC3C5)C(=O)C2(C)C)c1` (stereo not shown) [Example 109, 4,4-dimethyl-1-[(3-methylphenyl)carbonyl]-2-(adamantan-2-yl)-1,2-diazetidin-3-one] are 0.75 µM and 0.2 µM.
On the same counts, the results for `CC1(C)C(=O)N(C2C3CC4CC(C3)CC2C4)N1C(=O)c1cccc(Br)c1` (stereo not shown) [Example 113, 1-[(3-bromophenyl)carbonyl]-4,4-dimethyl-2-(adamantan-2-yl)-1,2-diazetidin-3-one] are 0.42 µM and 0.12 µM.
Consider `Cc1ccc(C(=O)N2N(C3C4CC5CC(C4)CC3C5)C(=O)C2(C)C)cc1` (stereo not shown) [Example 114, 4,4-dimethyl-1-[(4-methylphenyl)carbonyl]-2-(adamantan-2-yl)-1,2-diazetidin-3-one], for which the 50% inhibitory concentration (IC50) on human 11β-HSD1 (Table 2) is 0.54 µM; on mouse 11β-HSD1, 0.11 µM.
For `Cc1ccccc1C(=O)N1N(C2C3CC4CC(C3)CC2C4)C(=O)C1(C)C` (stereo not shown) [Example 116, 4,4-dimethyl-1-[(2-methylphenyl)carbonyl]-2-(adamantan-2-yl)-1,2-diazetidin-3-one], the IC50 on human 11β-HSD1 (Table 1) was found to be 0.13 µM; at mouse 11β-HSD1, 0.15 µM.
Take `CC1(C)C(=O)N(C2C3CC4CC(C3)CC2C4)N1C(=O)c1cc(Cl)cc(Cl)c1` (stereo not shown) [Example 117, 1-[(3,5-dichlorophenyl)carbonyl]-4,4-dimethyl-2-(adamantan-2-yl)-1,2-diazetidin-3-one]: the IC50 at human 11β-HSD1 (Table 2) came out at 0.98 µM; on mouse 11β-HSD1 it was 0.39 µM.
In the case of `Cc1ccc(F)cc1C(=O)N1N(C2C3CC4CC(C3)CC2C4)C(=O)C1(C)C` (stereo not shown) [Example 125, 1-[(5-fluoro-2-methylphenyl)carbonyl]-4,4-dimethyl-2-(adamantan-2-yl)-1,2-diazetidin-3-one], the IC50 turned out to be 0.47 µM at human 11β-HSD1 (Table 1) and 0.42 µM on mouse 11β-HSD1.
Turning to `CC1(C)C(=O)N(C2C3CC4CC(C3)CC2C4)N1C(=O)c1cccc(Cl)c1` (stereo not shown) [Example 128, 1-[(3-chlorophenyl)carbonyl]-4,4-dimethyl-2-(adamantan-2-yl)-1,2-diazetidin-3-one], the IC50 was determined as 0.5 µM on human 11β-HSD1 (Table 1) and 0.1 µM at mouse 11β-HSD1.
For `CC1(C)C(=O)N(C2C3CC4CC(C3)CC2C4)N1C(=O)c1ccc2c(c1)OCO2` (stereo not shown) [Example 135, 1-(1,3-benzodioxol-5-ylcarbonyl)-4,4-dimethyl-2-(adamantan-2-yl)-1,2-diazetidin-3-one], the IC50 was found to be 0.76 µM on human 11β-HSD1 (Table 2) and 0.11 µM at mouse 11β-HSD1.

These data come from patent US8252781B2, “1,2-diazetidin-3-one derivatives and drugs containing same” (Kowa Company, Ltd., priority 2008, dated 2012).
